Measured values from patent US8784793B2, “Conformable solvent-based bandage and coating material” (Rochal Industries LLP, priority 2005, dated 2014).

Assay: Rate of polymerization of BCA on a glass slide as a function of HMDS concentration
Format: physicochemical
Experimental: Additionally, a test was conducted for the rate of polymerization as a function of solvent concentration in order to assess the time interval for heat generation upon the polymerization of the cyanoacrylate monomer. The mixture included n-butyl cyanoacrylate in the presence and absence of hexamethyldisiloxane. […] Utilizing a glass slide containing BCA with no HMDS as the control, polymerization of this neat system occurred in 25 seconds. When a 20% BCA solution in HMDS was studied, utilizing the same amount of BCA as in the control, polymerization occurred in 40 seconds, and decreased the polymerization rate by 60%. […] Thus, the addition of the non-stinging, non-irritating volatile hexamethyldisiloxane solvent caused polymerization of the cyanoacrylate to occur at a slower rate than that reported by U.S. Pat. No. 6,010,714, allowing the heat of polymerization to be more evenly dissipated. […] The use of the HMDS would thus facilitate rapid coverage of a wound site.

C=C(C#N)C(=O)OCCCC [BCA, n-Butyl cyanoacrylate]
flow over the glass surface: tended to bead
time in which polymerization occurred (same amount of BCA as control): 25 s
